Results published in patent US9469650B2, “Melampomagnolide B derivatives” (BOARD OF TRUSTEES OF THE UNIVERSITY OF ARKANSAS, priority 2013, dated 2016).

Legend:
[1] = system: SW-620; assay: panel of 60 human tumor cell lines, growth inhibition (Colon Cancer); conditions: Homo sapiens
[2] = system: UACC-257; assay: panel of 60 human tumor cell lines, growth inhibition (Melanoma)
[3] = system: NCI-H322M; assay: panel of 60 human tumor cell lines, growth inhibition (Non-Small Cell Lung Cancer); conditions: Homo sapiens
[4] = system: OVCAR-5; assay: panel of 60 human tumor cell lines, growth inhibition (Ovarian Cancer); conditions: Homo sapiens
[5] = system: NCI-H522; assay: panel of 60 human tumor cell lines, growth inhibition (Non-Small Cell Lung Cancer); conditions: Homo sapiens
[6] = system: SNB-75; assay: panel of 60 human tumor cell lines, growth inhibition (CNS Cancer); conditions: Homo sapiens
[7] = system: HS 578T; assay: panel of 60 human tumor cell lines, growth inhibition (Breast Cancer); conditions: Homo sapiens, Hs-578T
[8] = system: HCT-116; assay: panel of 60 human tumor cell lines, growth inhibition (Colon Cancer); conditions: Homo sapiens
[9] = system: BT-549; assay: panel of 60 human tumor cell lines, growth inhibition (Breast Cancer); conditions: Homo sapiens
[10] = system: TK-10; assay: panel of 60 human tumor cell lines, growth inhibition (Renal Cancer); conditions: Homo sapiens
[11] = system: SF-295; assay: panel of 60 human tumor cell lines, growth inhibition (CNS Cancer); conditions: Homo sapiens
[12] = system: HCT-15; assay: panel of 60 human tumor cell lines, growth inhibition (Colon Cancer); conditions: Homo sapiens
[13] = system: SF-268; assay: panel of 60 human tumor cell lines, growth inhibition (CNS Cancer); conditions: Homo sapiens
[14] = system: A549/ATCC; assay: panel of 60 human tumor cell lines, growth inhibition (Non-Small Cell Lung Cancer); conditions: Homo sapiens, A549, read-out: LC50
[15] = system: OVCAR-3; assay: panel of 60 human tumor cell lines, growth inhibition (Ovarian Cancer)
[16] = system: K-562; assay: panel of 60 human tumor cell lines, growth inhibition (Leukemia)
[17] = system: T-47D; assay: panel of 60 human tumor cell lines, growth inhibition (Breast Cancer); conditions: Homo sapiens, T47D

C=C1C(=O)O[C@H]2[C@H]1CC/C(COC(=O)OCCCN1CCCCC1)=C\CC[C@@]1(C)O[C@@H]21 [JVM 2-26]
GI50 ([1]; SW-620, SW-620): 2.23 µM | CC50 ([1]; SW-620, read-out: LC50): 37.3 µM | IC (TGI) ([1]; SW-620, read-out: TGI): 8.74 µM | GI50 ([2]; Homo sapiens, UACC-257): 5.34 µM | CC50 ([2]; Homo sapiens, UACC-257, read-out: LC50): 45.6 µM | TGI ([2]; UACC-257): 1.87E−5 | Percent Growth ([2]; UACC-257, Log10 Concentration −4.0): −94% | Percent Growth ([2]; UACC-257, Log10 Concentration −5.0): 35% | Percent Growth ([2]; UACC-257, Log10 Concentration −6.0): 90% | Percent Growth ([2]; UACC-257, Log10 Concentration −7.0): 67% | Percent Growth ([2]; UACC-257, Log10 Concentration −8.0): 91% | GI50 [3]: 17.2 µM | CC50 ([3]; read-out: LC50): > 100 µM | IC (TGI) ([3]; read-out: TGI): 54.4 µM | GI50 ([4]; OVCAR-5): 10.1 µM | CC50 ([4]; OVCAR-5, read-out: LC50): 50.9 µM | IC (TGI) ([4]; OVCAR-5, read-out: TGI): 22.7 µM | GI50 ([5]; NCI-H522): 1.41 µM | CC50 ([5]; NCI-H522, read-out: LC50): 7.24 µM | IC (TGI) ([5]; NCI-H522, read-out: TGI): 3.2 µM | GI50 ([6]; SNB-75): 2.59 µM | CC50 ([6]; SNB-75, read-out: LC50): 40.6 µM | IC (TGI) ([6]; SNB-75, read-out: TGI): 16.5 µM | GI50 [7]: 4.96 µM | CC50 ([7]; read-out: LC50): > 100 µM | IC (TGI) ([7]; read-out: TGI): 26.8 µM | GI50 ([8]; HCT-116, HCT-116): 2.07 µM | CC50 ([8]; HCT-116, read-out: LC50): 23.9 µM | IC (TGI) ([8]; HCT-116, read-out: TGI): 6.42 µM | GI50 ([9]; BT-549): 3.12 µM | CC50 ([9]; BT-549, read-out: LC50): 38.7 µM | IC (TGI) ([9]; BT-549, read-out: TGI): 15 µM | GI50 ([10]; TK-10, TK-10): 2.03 µM | CC50 ([10]; TK-10, read-out: LC50): 25.5 µM | IC (TGI) ([10]; TK-10, read-out: TGI): 6.82 µM | GI50 ([11]; SF-295): 15.4 µM | CC50 ([11]; SF-295, read-out: LC50): 73.2 µM | IC (TGI) ([11]; SF-295, read-out: TGI): 33.5 µM | GI50 ([12]; HCT-15): 2.39 µM | CC50 ([12]; HCT-15, read-out: LC50): 37 µM | IC (TGI) ([12]; HCT-15, read-out: TGI): 10.6 µM | GI50 ([13]; SF-268): 6.14 µM | CC50 ([13]; SF-268, read-out: LC50): 53.2 µM | IC (TGI) ([13]; SF-268, read-out: TGI): 20.6 µM | CC50 [14]: 67.2 µM | GI50 ([15]; Homo sapiens, OVCAR-3): 1.96 µM | CC50 ([15]; Homo sapiens, OVCAR-3, read-out: LC50): 22 µM | IC (TGI) ([15]; Homo sapiens, OVCAR-3, read-out: TGI): 5.88 µM | Percent Growth ([15]; OVCAR-3, Log10 Concentration −4.0): −100% | Percent Growth ([15]; OVCAR-3, Log10 Concentration −5.0): −24% | Percent Growth ([15]; OVCAR-3, Log10 Concentration −6.0): 80% | Percent Growth ([15]; OVCAR-3, Log10 Concentration −7.0): 96% | Percent Growth ([15]; OVCAR-3, Log10 Concentration −8.0): 98% | GI50 ([16]; Homo sapiens, K562): 3.27 µM | CC50 ([16]; Homo sapiens, K562, read-out: LC50): > 100 µM | TGI ([16]; K-562): 1.52E−5 | Percent Growth ([16]; K-562, Log10 Concentration −4.0): −42% | Percent Growth ([16]; K-562, Log10 Concentration −5.0): 9% | Percent Growth ([16]; K-562, Log10 Concentration −6.0): 93% | Percent Growth ([16]; K-562, Log10 Concentration −7.0): 96. % | Percent Growth ([16]; K-562, Log10 Concentration −8.0): 100% | GI50 [17]: 2.34 µM | CC50 ([17]; read-out: LC50): 45.9 µM | IC (TGI) ([17]; read-out: TGI): 8.12 µM
